Assay results reported in publication PMC5078040 (Oncotarget, 2016).

Assays:
SGK = molecular target: T1, SGK (Homo sapiens, UniProt O00141); test: KinomeScan; format: binding; conditions: 1uM
T1 construct: purchased DiscoveRx KINOMEscan

MST1 = molecular target: T2, MST1 (Homo sapiens, UniProt Q13043); test: KinomeScan; format: binding; conditions: 1uM
T2 construct: purchased DiscoveRx KINOMEscan

SIK = molecular target: T3, SIK (Homo sapiens, UniProt P57059); test: KinomeScan; format: binding; conditions: 1uM
T3 construct: purchased DiscoveRx KINOMEscan

HPK1 = molecular target: T4, HPK1 (Homo sapiens, UniProt Q92918); test: KinomeScan; format: binding; conditions: 1uM
T4 construct: purchased DiscoveRx KINOMEscan

EGFR(L858R,T790M) = molecular target: T5, EGFR(L858R,T790M) (Homo sapiens, UniProt P00533, L858R/T790M); test: KinomeScan; format: binding; conditions: 1uM
T5 construct: purchased DiscoveRx KINOMEscan

PFTAIRE2 = molecular target: T6, PFTAIRE2 (Homo sapiens, UniProt Q96Q40); test: KinomeScan; format: binding; conditions: 1uM
T6 construct: purchased DiscoveRx KINOMEscan

IGF1R = molecular target: T7, IGF1R (Homo sapiens, UniProt P08069); test: KinomeScan; format: binding; conditions: 1uM
T7 construct: purchased DiscoveRx KINOMEscan

ROS1 = molecular target: T8, ROS1 (Homo sapiens, UniProt P08922); test: KinomeScan; format: binding; conditions: 1uM
T8 construct: purchased DiscoveRx KINOMEscan

CDK3 = molecular target: T9, CDK3 (Homo sapiens, UniProt Q00526); test: KinomeScan; format: binding; conditions: 1uM
T9 construct: purchased DiscoveRx KINOMEscan

[1] = molecular target: T10, ABL1(F317L)-phosphorylated (Homo sapiens, UniProt P00519, F317L); test: KinomeScan; format: binding; conditions: 1uM
T10 construct: purchased DiscoveRx KINOMEscan

YANK1 = molecular target: T11, YANK1 (Homo sapiens, UniProt Q8WU08); test: KinomeScan; format: binding; conditions: 1uM
T11 construct: purchased DiscoveRx KINOMEscan

CLK3 = molecular target: T12, CLK3 (Homo sapiens, UniProt P49761); test: KinomeScan; format: binding; conditions: 1uM
T12 construct: purchased DiscoveRx KINOMEscan

EPHA6 = molecular target: T13, EPHA6 (Homo sapiens, UniProt Q9UF33); test: KinomeScan; format: binding; conditions: 1uM
T13 construct: purchased DiscoveRx KINOMEscan

GSK3B = molecular target: T14, GSK3B (Homo sapiens, UniProt P49841); test: KinomeScan; format: binding; conditions: 1uM
T14 construct: purchased DiscoveRx KINOMEscan

SRPK3 = molecular target: T15, SRPK3 (Homo sapiens, UniProt Q9UPE1); test: KinomeScan; format: binding; conditions: 1uM
T15 construct: purchased DiscoveRx KINOMEscan

PAK2 = molecular target: T16, PAK2 (Homo sapiens, UniProt Q13177); test: KinomeScan; format: binding; conditions: 1uM
T16 construct: purchased DiscoveRx KINOMEscan

[2] = molecular target: T17, RSK1(Kin.Dom.1-N-terminal) (Homo sapiens, UniProt Q15418); test: KinomeScan; format: binding; conditions: 1uM
T17 construct: RSK1(Kin.Dom.1-N-terminal); purchased DiscoveRx KINOMEscan

CLL patient primary cell = test: Anti-proliferative efficacy against patient primary cells; format: cell-based; conditions: Homo sapiens
Procedure: Peripheral blood mononuclear cells (PBMCs) from individuals with CLL were isolated by density centrifugation through Ficoll and frozen for each subject. Those subjects with low white counts whose CLL cell purity was expected to be < 85% underwent B cell isolation using RosetteSep. The protocol was approved by the Dana-Farber Harvard Cancer Center Institutional Review Board and all subjects signed written informed consent prior to participation.
Cells were grown in 96-well culture plates (3000-4000/well). […] Cell proliferation was determined after treatment with compounds for 72 hours. Cell viability was measured using the CellTiter–Glo Assay Kit (Promega, USA), according to the manufacturer's instructions, and luminescence was measured in a multi-label reader (Envision, PerkinElmer, USA). Data were normalized to control groups (DMSO) and represented by the mean of three independent measurements with standard error <20%. GI50 values were calculated using Prism 5.0 (GraphPad Software, San Diego, CA).

NEK2 = molecular target: T18, NEK2 (Homo sapiens, UniProt P51955); test: KinomeScan; format: binding; conditions: 1uM
T18 construct: purchased DiscoveRx KINOMEscan

ABL1-phosphorylated = molecular target: T19, ABL1-phosphorylated (Homo sapiens, UniProt P00519); test: KinomeScan; format: binding; conditions: 1uM
T19 construct: purchased DiscoveRx KINOMEscan

FLT3(D835Y) = molecular target: T20, FLT3(D835Y) (Homo sapiens, UniProt P36888, D835Y); test: KinomeScan; format: binding; conditions: 1uM
T20 construct: purchased DiscoveRx KINOMEscan

VEGFR2 = molecular target: T21, VEGFR2 (Homo sapiens, UniProt P35968); test: KinomeScan; format: binding; conditions: 1uM
T21 construct: purchased DiscoveRx KINOMEscan

GRK7 = molecular target: T22, GRK7 (Homo sapiens, UniProt Q8WTQ7); test: KinomeScan; format: binding; conditions: 1uM
T22 construct: purchased DiscoveRx KINOMEscan

TAOK1 = molecular target: T23, TAOK1 (Homo sapiens, UniProt Q7L7X3); test: KinomeScan; format: binding; conditions: 1uM
T23 construct: purchased DiscoveRx KINOMEscan

BMPR1B = molecular target: T24, BMPR1B (Homo sapiens, UniProt O00238); test: KinomeScan; format: binding; conditions: 1uM
T24 construct: purchased DiscoveRx KINOMEscan

PI3Kβ = molecular target: T25, PI3Kβ (Mus musculus, UniProt Q8BTI9); test: PI3Ks isoform in cell EC50 assay (AKT phosphorylation, Western Blotting); format: cell-based; conditions: NIH-3T3, 5μM LPA, read-out: cellular EC50 PI3K Beta
T25 construct: endogenous in cells; host or cells: NIH-3T3

MYO3B = molecular target: T26, MYO3B (Homo sapiens, UniProt Q8WXR4); test: KinomeScan; format: binding; conditions: 1uM
T26 construct: purchased DiscoveRx KINOMEscan

TNK1 = molecular target: T27, TNK1 (Homo sapiens, UniProt Q13470); test: KinomeScan; format: binding; conditions: 1uM
T27 construct: purchased DiscoveRx KINOMEscan

TLK2 = molecular target: T28, TLK2 (Homo sapiens, UniProt Q86UE8); test: KinomeScan; format: binding; conditions: 1uM
T28 construct: purchased DiscoveRx KINOMEscan

PAK6 = molecular target: T29, PAK6 (Homo sapiens, UniProt Q9NQU5); test: KinomeScan; format: binding; conditions: 1uM
T29 construct: purchased DiscoveRx KINOMEscan

[3] = molecular target: T30, ABL1(H396P)-nonphosphorylated (Homo sapiens, UniProt P00519, H396P); test: KinomeScan; format: binding; conditions: 1uM
T30 construct: purchased DiscoveRx KINOMEscan

CAMKK2 = molecular target: T31, CAMKK2 (Homo sapiens, UniProt Q96RR4); test: KinomeScan; format: binding; conditions: 1uM
T31 construct: purchased DiscoveRx KINOMEscan

PDPK1 = molecular target: T32, PDPK1 (Homo sapiens, UniProt O15530); test: KinomeScan; format: binding; conditions: 1uM
T32 construct: purchased DiscoveRx KINOMEscan

PI3Kγ = PI3Kγ (Homo sapiens, UniProt P48736); test: biochemical
Procedure: The reaction in each tube was started immediately by adding ATP and kept going for an hour under 37°C. After the tube cooled for 5 minutes at room temperature, 5 μL solvent reactions were carried out in a 384-well plate. Then 5 μL of ADP-Glo™ reagent was added into each well to stop the reaction and consume the remaining ADP within 40 minutes. At the end, 10 μL of kinase detection reagent was added into the well and incubated for 30 minutes to produce a luminescence signal. Luminescence signal was measured with an automated plate reader (Perkin-Elmer Envision) and each measurement was performed in triplicate.

MYLK2 = molecular target: T33, MYLK2 (Homo sapiens, UniProt Q9H1R3); test: KinomeScan; format: binding; conditions: 1uM
T33 construct: purchased DiscoveRx KINOMEscan

KIT-autoinhibited = molecular target: T34, KIT-autoinhibited (Homo sapiens, UniProt P10721); test: KinomeScan; format: binding; conditions: 1uM
T34 construct: purchased DiscoveRx KINOMEscan

EPHA5 = molecular target: T35, EPHA5 (Homo sapiens, UniProt P54756); test: KinomeScan; format: binding; conditions: 1uM
T35 construct: purchased DiscoveRx KINOMEscan

T31 sequence (Q96RR4 whole entry): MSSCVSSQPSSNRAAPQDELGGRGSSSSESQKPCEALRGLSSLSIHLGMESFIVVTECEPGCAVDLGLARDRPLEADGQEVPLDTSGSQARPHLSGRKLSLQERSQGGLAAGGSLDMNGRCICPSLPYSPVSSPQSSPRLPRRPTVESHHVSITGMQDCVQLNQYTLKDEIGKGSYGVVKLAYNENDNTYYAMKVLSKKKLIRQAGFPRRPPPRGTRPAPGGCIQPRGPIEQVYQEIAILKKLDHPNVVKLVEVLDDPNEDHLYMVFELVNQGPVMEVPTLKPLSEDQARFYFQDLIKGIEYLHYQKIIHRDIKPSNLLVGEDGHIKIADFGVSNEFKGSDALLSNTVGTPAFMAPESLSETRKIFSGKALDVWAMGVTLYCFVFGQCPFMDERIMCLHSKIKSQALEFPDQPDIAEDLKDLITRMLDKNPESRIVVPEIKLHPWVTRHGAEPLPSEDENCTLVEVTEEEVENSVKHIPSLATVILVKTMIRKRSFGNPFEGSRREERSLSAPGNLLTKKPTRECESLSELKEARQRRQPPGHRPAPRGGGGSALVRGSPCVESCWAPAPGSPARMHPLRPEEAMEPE
T4 sequence (Q92918 whole entry): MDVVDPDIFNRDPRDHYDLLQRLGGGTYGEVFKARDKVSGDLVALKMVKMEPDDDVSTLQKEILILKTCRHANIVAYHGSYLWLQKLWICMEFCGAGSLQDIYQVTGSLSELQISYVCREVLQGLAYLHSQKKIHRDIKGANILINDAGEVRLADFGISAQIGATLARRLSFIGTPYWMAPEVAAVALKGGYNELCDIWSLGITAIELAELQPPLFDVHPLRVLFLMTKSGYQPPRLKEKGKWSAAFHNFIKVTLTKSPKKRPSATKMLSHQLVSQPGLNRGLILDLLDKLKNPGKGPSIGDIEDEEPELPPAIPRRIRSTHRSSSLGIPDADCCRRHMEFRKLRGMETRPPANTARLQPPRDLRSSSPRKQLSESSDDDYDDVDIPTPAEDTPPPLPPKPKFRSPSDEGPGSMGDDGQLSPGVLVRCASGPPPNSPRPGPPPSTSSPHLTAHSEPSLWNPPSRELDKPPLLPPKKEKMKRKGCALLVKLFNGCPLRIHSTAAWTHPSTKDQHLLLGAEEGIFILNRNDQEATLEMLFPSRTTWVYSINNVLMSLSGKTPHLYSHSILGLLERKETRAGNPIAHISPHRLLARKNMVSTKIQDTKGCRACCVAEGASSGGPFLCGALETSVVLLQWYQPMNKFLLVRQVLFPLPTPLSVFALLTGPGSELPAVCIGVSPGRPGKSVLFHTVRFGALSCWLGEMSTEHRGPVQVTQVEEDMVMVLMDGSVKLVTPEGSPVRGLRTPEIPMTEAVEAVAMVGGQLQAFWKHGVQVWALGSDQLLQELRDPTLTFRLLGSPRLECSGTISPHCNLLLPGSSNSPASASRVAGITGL
T9 sequence (Q00526 whole entry): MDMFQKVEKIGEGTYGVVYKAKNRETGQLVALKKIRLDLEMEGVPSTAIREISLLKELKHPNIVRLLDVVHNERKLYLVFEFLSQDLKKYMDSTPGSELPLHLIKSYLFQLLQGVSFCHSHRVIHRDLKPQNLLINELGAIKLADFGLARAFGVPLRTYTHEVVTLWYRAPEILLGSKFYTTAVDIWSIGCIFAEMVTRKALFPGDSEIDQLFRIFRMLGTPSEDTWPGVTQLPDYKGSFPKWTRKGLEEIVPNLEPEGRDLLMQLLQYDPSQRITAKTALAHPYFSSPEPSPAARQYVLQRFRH
T17 sequence (Q15418 1-391 limits assumed): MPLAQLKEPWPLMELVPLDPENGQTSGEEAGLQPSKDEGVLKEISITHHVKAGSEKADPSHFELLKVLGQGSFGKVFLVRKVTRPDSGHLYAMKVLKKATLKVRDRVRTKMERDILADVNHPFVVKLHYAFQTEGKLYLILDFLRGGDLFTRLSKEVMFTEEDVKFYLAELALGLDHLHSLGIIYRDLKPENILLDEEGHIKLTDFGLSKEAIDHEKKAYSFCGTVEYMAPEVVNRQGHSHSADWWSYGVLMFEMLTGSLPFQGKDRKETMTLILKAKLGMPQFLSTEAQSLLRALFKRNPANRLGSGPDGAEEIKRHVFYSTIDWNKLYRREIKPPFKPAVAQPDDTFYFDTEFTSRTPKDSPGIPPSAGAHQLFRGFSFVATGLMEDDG
T15 sequence (Q9UPE1 whole entry): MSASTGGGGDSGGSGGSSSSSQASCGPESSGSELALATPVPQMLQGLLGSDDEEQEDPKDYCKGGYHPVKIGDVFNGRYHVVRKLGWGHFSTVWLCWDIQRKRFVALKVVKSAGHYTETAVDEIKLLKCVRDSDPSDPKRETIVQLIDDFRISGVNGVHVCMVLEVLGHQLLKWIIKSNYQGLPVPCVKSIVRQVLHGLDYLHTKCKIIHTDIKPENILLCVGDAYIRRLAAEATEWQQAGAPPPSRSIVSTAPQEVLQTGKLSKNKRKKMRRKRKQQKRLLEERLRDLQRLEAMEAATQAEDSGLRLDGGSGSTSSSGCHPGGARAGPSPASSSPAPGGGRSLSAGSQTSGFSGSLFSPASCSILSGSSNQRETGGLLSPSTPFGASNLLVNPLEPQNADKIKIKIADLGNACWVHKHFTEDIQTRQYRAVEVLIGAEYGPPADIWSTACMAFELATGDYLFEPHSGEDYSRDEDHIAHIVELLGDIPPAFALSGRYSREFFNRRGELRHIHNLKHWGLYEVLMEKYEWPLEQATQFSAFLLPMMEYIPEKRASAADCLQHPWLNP
T33 sequence (Q9H1R3 whole entry): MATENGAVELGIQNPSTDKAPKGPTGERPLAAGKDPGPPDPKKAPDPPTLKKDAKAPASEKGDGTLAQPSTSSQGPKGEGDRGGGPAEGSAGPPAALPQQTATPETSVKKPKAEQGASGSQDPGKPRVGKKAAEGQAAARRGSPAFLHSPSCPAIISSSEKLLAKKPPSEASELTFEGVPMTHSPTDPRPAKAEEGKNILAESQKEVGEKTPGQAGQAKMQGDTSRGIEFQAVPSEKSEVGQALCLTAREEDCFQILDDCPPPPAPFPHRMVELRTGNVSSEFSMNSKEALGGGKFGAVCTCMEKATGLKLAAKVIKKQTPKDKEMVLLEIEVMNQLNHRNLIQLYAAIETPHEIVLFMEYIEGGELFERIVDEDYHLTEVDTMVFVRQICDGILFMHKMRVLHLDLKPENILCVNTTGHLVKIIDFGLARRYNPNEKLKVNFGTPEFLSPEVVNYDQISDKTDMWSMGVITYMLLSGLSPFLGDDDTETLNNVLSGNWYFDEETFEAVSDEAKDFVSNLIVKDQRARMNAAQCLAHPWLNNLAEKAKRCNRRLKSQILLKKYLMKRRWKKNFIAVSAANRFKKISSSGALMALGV
T14 sequence (P49841 whole entry): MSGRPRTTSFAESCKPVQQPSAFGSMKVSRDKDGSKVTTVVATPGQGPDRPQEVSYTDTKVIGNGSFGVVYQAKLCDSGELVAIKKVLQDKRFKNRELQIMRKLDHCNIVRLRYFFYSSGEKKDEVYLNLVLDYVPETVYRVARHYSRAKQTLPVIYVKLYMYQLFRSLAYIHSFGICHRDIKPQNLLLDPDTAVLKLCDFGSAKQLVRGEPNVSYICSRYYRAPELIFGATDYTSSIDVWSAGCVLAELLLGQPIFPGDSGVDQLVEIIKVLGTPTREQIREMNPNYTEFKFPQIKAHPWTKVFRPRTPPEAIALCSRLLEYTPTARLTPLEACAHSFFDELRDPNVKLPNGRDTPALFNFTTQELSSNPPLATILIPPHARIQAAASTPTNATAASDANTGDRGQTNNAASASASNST
T34 sequence (P10721 26-976): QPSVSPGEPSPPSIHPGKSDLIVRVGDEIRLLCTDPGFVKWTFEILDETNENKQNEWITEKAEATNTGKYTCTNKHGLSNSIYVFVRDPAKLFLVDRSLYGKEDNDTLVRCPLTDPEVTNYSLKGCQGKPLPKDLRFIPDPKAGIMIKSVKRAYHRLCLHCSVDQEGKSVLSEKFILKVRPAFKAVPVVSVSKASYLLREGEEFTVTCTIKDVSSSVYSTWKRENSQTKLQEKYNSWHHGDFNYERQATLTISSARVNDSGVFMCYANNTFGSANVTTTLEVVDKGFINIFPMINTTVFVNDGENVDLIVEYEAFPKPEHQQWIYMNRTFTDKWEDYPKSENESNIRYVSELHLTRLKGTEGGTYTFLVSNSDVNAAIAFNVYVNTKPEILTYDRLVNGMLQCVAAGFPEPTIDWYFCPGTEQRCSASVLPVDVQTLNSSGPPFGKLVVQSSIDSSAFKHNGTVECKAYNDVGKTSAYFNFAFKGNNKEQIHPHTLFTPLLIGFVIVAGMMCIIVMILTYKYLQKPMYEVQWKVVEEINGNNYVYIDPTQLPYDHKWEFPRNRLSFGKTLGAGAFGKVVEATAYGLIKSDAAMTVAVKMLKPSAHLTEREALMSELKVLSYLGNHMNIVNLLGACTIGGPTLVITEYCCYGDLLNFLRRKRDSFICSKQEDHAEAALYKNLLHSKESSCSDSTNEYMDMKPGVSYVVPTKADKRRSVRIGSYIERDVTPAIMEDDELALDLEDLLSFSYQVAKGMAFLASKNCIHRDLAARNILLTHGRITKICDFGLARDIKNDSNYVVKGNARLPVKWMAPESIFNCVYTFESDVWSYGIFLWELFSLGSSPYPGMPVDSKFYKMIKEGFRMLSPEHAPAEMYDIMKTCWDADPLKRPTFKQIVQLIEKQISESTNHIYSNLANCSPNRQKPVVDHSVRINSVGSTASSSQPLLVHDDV

Cc1nc(NC(=O)[C@@H](N)C(C)C)sc1-c1cnc(Cl)c(NS(=O)(=O)c2ccccc2)c1 [PI3KD-IN-015]
KinomeScan SGK (SGK): 70 | KinomeScan MST1 (MST1): 83 | KinomeScan SIK (SIK): 99 | KinomeScan HPK1 (HPK1): 87 | KinomeScan EGFR(L858R,T790M) (EGFR(L858R,T790M)): 100 | KinomeScan PFTAIRE2 (PFTAIRE2): 100 | KinomeScan IGF1R (IGF1R): 100 | KinomeScan ROS1 (ROS1): 99 | KinomeScan CDK3 (CDK3): 100 | KinomeScan ABL1(F317L)-phosphorylated [1]: 99 | KinomeScan YANK1 (YANK1): 100 | KinomeScan CLK3 (CLK3): 100 | KinomeScan EPHA6 (EPHA6): 100 | KinomeScan GSK3B (GSK3B): 97 | KinomeScan SRPK3 (SRPK3): 100 | KinomeScan PAK2 (PAK2): 89 | KinomeScan RSK1(Kin.Dom.1-N-terminal) [2]: 74 | GI50 (CLL patient primary cell; patient primary cell CLL16): 7800 nM | GI50 (CLL patient primary cell; patient primary cell CLL18): > 10000 nM | GI50 (CLL patient primary cell; patient primary cell CLL19): 1500 nM | KinomeScan NEK2 (NEK2): 100 | KinomeScan ABL1-phosphorylated (ABL1-phosphorylated): 85 | KinomeScan FLT3(D835Y) (FLT3(D835Y)): 98 | KinomeScan VEGFR2 (VEGFR2): 99 | KinomeScan GRK7 (GRK7): 97 | KinomeScan TAOK1 (TAOK1): 96 | KinomeScan BMPR1B (BMPR1B): 80 | EC50 (PI3Kβ): > 3000 nM | KinomeScan MYO3B (MYO3B): 100 | KinomeScan TNK1 (TNK1): 100 | KinomeScan TLK2 (TLK2): 100 | KinomeScan PAK6 (PAK6): 91 | KinomeScan ABL1(H396P)-nonphosphorylated [3]: 100 | KinomeScan CAMKK2 (CAMKK2): 96 | KinomeScan PDPK1 (PDPK1): 100 | IC50 (PI3Kγ): 125 nM | KinomeScan MYLK2 (MYLK2): 84 | KinomeScan KIT-autoinhibited (KIT-autoinhibited): 100 | KinomeScan EPHA5 (EPHA5): 100
